In the NIST ThermoML archive (doi:10.1021/acs.jced.8b00591):

Assay: xn = mol fraction of the nth substance listed
Conditions: 101.3 kPa, Liquid; for viscosity: Falling or rolling sphere viscometry; for mass density: Vibrating tube method

CCCC[n+]1ccn(C)c1.O=S(=O)([N-]S(=O)(=O)C(F)(F)F)C(F)(F)F + CCOC(=O)OCC
Conditions	mass density [kg/m3]	viscosity [mPa·s]
288.15 K, x1 = 0.1025	1086.84	2.12
288.15 K, x1 = 0.2198	1177.9	4.415
288.15 K, x1 = 0.3178	1236.57	7.583
288.15 K, x1 = 0.4211	1285.86	13.26
288.15 K, x1 = 0.5268	1327.09	20.12
288.15 K, x1 = 0.622	1358.33	28.36
288.15 K, x1 = 0.7193	1385.68	38.93
288.15 K, x1 = 0.8139	1408.25	50.88
288.15 K, x1 = 0.9088	1428.49	64.94
288.15 K, x1 = 1	1445.66	78.02
293.15 K, x1 = 0.1025	1081.45	1.928
293.15 K, x1 = 0.2198	1172.7	3.925
293.15 K, x1 = 0.3178	1231.47	6.526
293.15 K, x1 = 0.4211	1280.83	11.18
293.15 K, x1 = 0.5268	1322.13	17.25
293.15 K, x1 = 0.622	1353.42	23.42
293.15 K, x1 = 0.7193	1380.79	31.68
293.15 K, x1 = 0.8139	1403.38	40.79
293.15 K, x1 = 0.9088	1423.65	51.44
293.15 K, x1 = 1	1440.84	61.32
298.15 K, x1 = 0.1025	1076.05	1.764
298.15 K, x1 = 0.2198	1167.48	3.517
298.15 K, x1 = 0.3178	1226.35	5.739
298.15 K, x1 = 0.4211	1275.8	9.492
298.15 K, x1 = 0.5268	1317.16	14.77
298.15 K, x1 = 0.622	1348.49	19.58
298.15 K, x1 = 0.7193	1375.9	26.16
298.15 K, x1 = 0.8139	1398.52	33.25
298.15 K, x1 = 0.9088	1418.81	41.43
298.15 K, x1 = 1	1436.01	48.93
303.15 K, x1 = 0.1025	1070.65	1.618
303.15 K, x1 = 0.2198	1162.26	3.168
303.15 K, x1 = 0.3178	1221.23	5.085
303.15 K, x1 = 0.4211	1270.77	8.179
303.15 K, x1 = 0.5268	1312.2	12.6
303.15 K, x1 = 0.622	1343.58	17.03
303.15 K, x1 = 0.7193	1371.04	21.88
303.15 K, x1 = 0.8139	1393.68	27.57
303.15 K, x1 = 0.9088	1413.97	34.06
303.15 K, x1 = 1	1431.21	39.84
308.15 K, x1 = 0.1025	1065.23	1.492
308.15 K, x1 = 0.2198	1157.03	2.873
308.15 K, x1 = 0.3178	1216.12	4.539
308.15 K, x1 = 0.4211	1265.74	7.219
308.15 K, x1 = 0.5268	1307.25	10.76
308.15 K, x1 = 0.622	1338.67	14.69
308.15 K, x1 = 0.7193	1366.17	18.7
308.15 K, x1 = 0.8139	1388.84	23.2
308.15 K, x1 = 0.9088	1409.18	28.32
308.15 K, x1 = 1	1426.43	32.91
313.15 K, x1 = 0.1025	1059.8	1.385
313.15 K, x1 = 0.2198	1151.8	2.614
313.15 K, x1 = 0.3178	1210.99	3.977
313.15 K, x1 = 0.4211	1260.71	6.414
313.15 K, x1 = 0.5268	1302.3	9.287
313.15 K, x1 = 0.622	1333.78	12.63
313.15 K, x1 = 0.7193	1361.32	16.35
313.15 K, x1 = 0.8139	1384.01	19.64
313.15 K, x1 = 0.9088	1404.39	23.69
313.15 K, x1 = 1	1421.66	27.56
318.15 K, x1 = 0.1025	1054.35	1.286
318.15 K, x1 = 0.2198	1146.57	2.391
318.15 K, x1 = 0.3178	1205.88	3.591
318.15 K, x1 = 0.4211	1255.69	5.815
318.15 K, x1 = 0.5268	1297.36	8.069
318.15 K, x1 = 0.622	1328.9	10.92
318.15 K, x1 = 0.7193	1356.48	14.18
318.15 K, x1 = 0.8139	1379.19	16.89
318.15 K, x1 = 0.9088	1399.6	20.05
318.15 K, x1 = 1	1416.91	23.33
323.15 K, x1 = 0.1025	1048.88	1.198
323.15 K, x1 = 0.2198	1141.33	2.194
323.15 K, x1 = 0.3178	1200.77	3.259
323.15 K, x1 = 0.4211	1250.68	5.216
323.15 K, x1 = 0.5268	1292.44	7.105
323.15 K, x1 = 0.622	1324.02	9.492
323.15 K, x1 = 0.7193	1351.66	12.28
323.15 K, x1 = 0.8139	1374.39	14.6
323.15 K, x1 = 0.9088	1394.85	17.26
323.15 K, x1 = 1	1412.17	19.97
328.15 K, x1 = 0.1025	1043.4	1.117
328.15 K, x1 = 0.2198	1136.07	2.025
328.15 K, x1 = 0.3178	1195.65	2.978
328.15 K, x1 = 0.4211	1245.68	4.71
328.15 K, x1 = 0.5268	1287.5	6.138
328.15 K, x1 = 0.622	1319.16	8.288
328.15 K, x1 = 0.7193	1346.84	10.66
328.15 K, x1 = 0.8139	1369.58	12.69
328.15 K, x1 = 0.9088	1390.1	15
328.15 K, x1 = 1	1407.45	17.41

CCn1cc[n+](C)c1.O=S(=O)([N-]S(=O)(=O)C(F)(F)F)C(F)(F)F + CCOC(=O)OCC
Conditions	mass density [kg/m3]	viscosity [mPa·s]
288.15 K, x1 = 0.0991	1090.45	1.938
288.15 K, x1 = 0.1982	1179.3	3.368
288.15 K, x1 = 0.3024	1254.64	5.628
288.15 K, x1 = 0.3979	1312.21	8.533
288.15 K, x1 = 0.4982	1362.22	12.38
288.15 K, x1 = 0.5963	1404.91	17.23
288.15 K, x1 = 0.6992	1442.62	24.14
288.15 K, x1 = 0.7987	1475.05	31.13
288.15 K, x1 = 0.9	1503.75	39.07
288.15 K, x1 = 1	1528.55	49.41
293.15 K, x1 = 0.0991	1085.01	1.769
293.15 K, x1 = 0.1982	1173.95	3.032
293.15 K, x1 = 0.3024	1249.39	4.987
293.15 K, x1 = 0.3979	1306.99	7.45
293.15 K, x1 = 0.4982	1357.04	10.66
293.15 K, x1 = 0.5963	1399.78	14.65
293.15 K, x1 = 0.6992	1437.5	20.32
293.15 K, x1 = 0.7987	1469.95	25.96
293.15 K, x1 = 0.9	1498.66	32.29
293.15 K, x1 = 1	1523.47	40.36
298.15 K, x1 = 0.0991	1079.54	1.623
298.15 K, x1 = 0.1982	1168.6	2.746
298.15 K, x1 = 0.3024	1244.11	4.452
298.15 K, x1 = 0.3979	1301.78	6.552
298.15 K, x1 = 0.4982	1351.87	9.269
298.15 K, x1 = 0.5963	1394.64	12.59
298.15 K, x1 = 0.6992	1432.38	17.65
298.15 K, x1 = 0.7987	1464.86	21.91
298.15 K, x1 = 0.9	1493.58	27.04
298.15 K, x1 = 1	1518.39	33.52
303.15 K, x1 = 0.0991	1074.07	1.495
303.15 K, x1 = 0.1982	1163.23	2.498
303.15 K, x1 = 0.3024	1238.83	3.992
303.15 K, x1 = 0.3979	1296.56	5.819
303.15 K, x1 = 0.4982	1346.7	8.127
303.15 K, x1 = 0.5963	1389.51	10.93
303.15 K, x1 = 0.6992	1427.28	15.41
303.15 K, x1 = 0.7987	1459.77	18.79
303.15 K, x1 = 0.9	1488.51	22.93
303.15 K, x1 = 1	1513.34	28.35
308.15 K, x1 = 0.0991	1068.56	1.389
308.15 K, x1 = 0.1982	1157.86	2.288
308.15 K, x1 = 0.3024	1233.56	3.607
308.15 K, x1 = 0.3979	1291.36	5.196
308.15 K, x1 = 0.4982	1341.55	7.192
308.15 K, x1 = 0.5963	1384.4	9.572
308.15 K, x1 = 0.6992	1422.19	13.37
308.15 K, x1 = 0.7987	1454.71	16.59
308.15 K, x1 = 0.9	1483.46	19.65
308.15 K, x1 = 1	1508.3	24.15
313.15 K, x1 = 0.0991	1063.05	1.29
313.15 K, x1 = 0.1982	1152.48	2.102
313.15 K, x1 = 0.3024	1228.28	3.278
313.15 K, x1 = 0.3979	1286.15	4.672
313.15 K, x1 = 0.4982	1336.41	6.41
313.15 K, x1 = 0.5963	1379.3	8.445
313.15 K, x1 = 0.6992	1417.12	11.6
313.15 K, x1 = 0.7987	1449.66	14.56
313.15 K, x1 = 0.9	1478.42	17.36
313.15 K, x1 = 1	1503.28	20.76
318.15 K, x1 = 0.0991	1057.53	1.204
318.15 K, x1 = 0.1982	1147.11	1.939
318.15 K, x1 = 0.3024	1223.01	2.993
318.15 K, x1 = 0.3979	1280.95	4.223
318.15 K, x1 = 0.4982	1331.27	5.749
318.15 K, x1 = 0.5963	1374.2	7.525
318.15 K, x1 = 0.6992	1412.06	10.14
318.15 K, x1 = 0.7987	1444.62	12.72
318.15 K, x1 = 0.9	1473.41	15.35
318.15 K, x1 = 1	1498.27	17.9
323.15 K, x1 = 0.0991	1051.98	1.121
323.15 K, x1 = 0.1982	1141.72	1.794
323.15 K, x1 = 0.3024	1217.74	2.746
323.15 K, x1 = 0.3979	1275.76	3.839
323.15 K, x1 = 0.4982	1326.13	5.184
323.15 K, x1 = 0.5963	1369.11	6.739
323.15 K, x1 = 0.6992	1407.01	8.895
323.15 K, x1 = 0.7987	1439.6	11.15
323.15 K, x1 = 0.9	1468.41	13.53
323.15 K, x1 = 1	1493.28	15.93
328.15 K, x1 = 0.0991	1046.42	1.049
328.15 K, x1 = 0.1982	1136.32	1.667
328.15 K, x1 = 0.3024	1212.46	2.528
328.15 K, x1 = 0.3979	1270.58	3.509
328.15 K, x1 = 0.4982	1321.01	4.704
328.15 K, x1 = 0.5963	1364.03	6.075
328.15 K, x1 = 0.6992	1401.98	7.875
328.15 K, x1 = 0.7987	1434.59	9.813
328.15 K, x1 = 0.9	1463.42	11.93
328.15 K, x1 = 1	1488.31	14.26
